Data: ChEMBL document CHEMBL4725376, “Identification of the first noncompetitive SARM1 inhibitors” (Bioorg Med Chem, 2020)
Where a name gives a salt, the structure may show the parent alone.

Assays:
Format in all cases: subcellular
[1] = target: T1, NAD(+) hydrolase SARM1 (Homo sapiens) (UniProt Q6SZW1); test: Inhibition of recombinant human SARM1 TIR domain (561 to 724 residues) expressed in Escherichia coli C43 (DE3) cells lysates using ENAD as substrate at 25 uM preincubated for 20 mins followed by ENAD addition and measured after 1 hr relative to control
T1 sequence (whole entry): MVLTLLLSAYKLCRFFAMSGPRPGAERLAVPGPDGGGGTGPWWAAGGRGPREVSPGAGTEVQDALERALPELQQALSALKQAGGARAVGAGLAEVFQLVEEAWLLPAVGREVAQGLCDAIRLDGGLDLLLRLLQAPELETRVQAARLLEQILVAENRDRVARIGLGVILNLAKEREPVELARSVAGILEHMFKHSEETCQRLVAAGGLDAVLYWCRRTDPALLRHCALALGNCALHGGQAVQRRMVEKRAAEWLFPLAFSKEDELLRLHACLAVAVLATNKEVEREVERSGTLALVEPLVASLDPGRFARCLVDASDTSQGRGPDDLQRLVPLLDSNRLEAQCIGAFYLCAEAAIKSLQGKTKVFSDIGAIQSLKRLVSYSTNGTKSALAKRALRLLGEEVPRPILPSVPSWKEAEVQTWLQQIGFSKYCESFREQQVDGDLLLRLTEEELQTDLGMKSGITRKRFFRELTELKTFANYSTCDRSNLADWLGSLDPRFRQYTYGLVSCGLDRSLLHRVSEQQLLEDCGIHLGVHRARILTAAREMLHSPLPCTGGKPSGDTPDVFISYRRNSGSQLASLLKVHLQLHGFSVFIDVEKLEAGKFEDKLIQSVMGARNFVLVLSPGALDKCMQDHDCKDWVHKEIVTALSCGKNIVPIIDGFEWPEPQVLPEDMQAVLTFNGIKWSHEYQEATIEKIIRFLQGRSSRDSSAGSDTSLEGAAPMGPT

NAD(+) hydrolase SARM1 [2] = target: T2, NAD(+) hydrolase SARM1 (Homo sapiens, UniProt Q6SZW1); test: Inhibition of recombinant human SARM1 TIR domain (561 to 724 residues) expressed in Escherichia coli C43 (DE3) cells lysates using ENAD as substrate preincubated for 20 mins followed by ENAD addition and measured at 15 sec interval for 15 mins
T2 sequence (Q6SZW1 whole entry): T1 sequence (whole entry)

NAD(+) hydrolase SARM1 [3] = target: T2, NAD(+) hydrolase SARM1; test: Noncompetitive inhibition of recombinant human SARM1 TIR domain (561 to 724 residues) expressed in Escherichia coli C43 (DE3) cells lysates assessed as EADPR formation using ENAD as substrate preincubated for 20 mins followed by ENAD addition and measured at 15 sec interval for 1 hr
NAD(+) hydrolase SARM1 [4] = target: T2, NAD(+) hydrolase SARM1; test: Competitive inhibition of recombinant human SARM1 TIR domain (561 to 724 residues) expressed in Escherichia coli C43 (DE3) cells lysates assessed as EADPR formation using ENAD as substrate preincubated for 20 mins followed by ENAD addition and measured at 15 sec interval for 1 hr

Row | SMILES | inhibition [1] [%] | IC50 (NAD(+) hydrolase SARM1 [2]) [µM] | Ki (NAD(+) hydrolase SARM1 [3]) [µM] | Ki (NAD(+) hydrolase SARM1 [4]) [µM]
1 | C[C@H]1c2cccc(O)c2C(=O)C2=C(O)[C@]3(O)C(=O)C(C(N)=O)=C(O)[C@@H](N(C)C)[C@@H]3[C@@H](O)[C@@H]21 | 26 | – | – | –
2 | NC(=O)N/N=C/c1ccc([N+](=O)[O-])o1 [NITROFURAZONE] | 27 | 90 | 120 | –
3 | Nc1ccc(/N=N/c2ccccc2)c(N)n1 [PHENAZOPYRIDINE HYDROCHLORIDE] | 44 | – | – | 70
